Reference: article PMC12321279, “Novel 4,5‐Dihydrothiazole‐Phenylpiperazine Derivatives: Synthesis, Docking Studies and Pharmacological Evaluation as Serotonergic Agents” (Chemmedchem, 2025)
Like-named read-outs stand apart in the source and are kept apart here.

How the values were obtained:
[1] = system: larval zebrafish; experiment: Basic locomotor activity of larval zebrafish; assay type: in vivo, zebrafish (Danio rerio); conditions: 5 dpf larvae, 20 h incubation at maximum‐tolerated concentration (Figure 12), 30 min tracking
Protocol: All experiments were conducted on zebrafish (Danio rerio) larvae up to 5 days post fertilization (dpf), therefore, in accordance with current European legislation, ethical permission to conduct assays was not required. However, housing and experimental procedures were performed in compliance with the National Institute of Health Guidelines for the Care and Use of Laboratory Animals and the European Union Directive of 22 September 2010 (2010/63/EU) on protecting animals used for scientific purposes. All efforts were taken to minimize larvae stress and suffering. Larvae were euthanized with an overdose of tricaine ([…]). The zebrafish facility of Experimental Medicine Centre (Medical University of Lublin, Poland) provided wild‐type zebrafish embryos of the AB strain. Embryos as well as larvae were maintained in Petri dishes filled with E3 embryo medium, i.e., fish water (1.5 mM HEPES, pH 7.6; 17.4 mM NaCl; 0.21 mM KCl; 0.12 mM MgSO4; and 0.18 mM Ca (NO3)2). These were maintained under standard, generally accepted housing conditions (temperature 28.5 ± 1 °C, light to dark cycle 14 h to 10 h). Plastic transfer Pasteur pipettes were used to replace medium each day. Before the respective behavioral tests were conducted, larvae at 4 dpf were incubated for 20 h in different arylpiperazine derivatives solutions of maximum‐tolerated concentrations (MCTs), determined during toxicological screening.^[ [30], [32] ^] The control group was exposed to equivalent concentration of DMSO solvent. All locomotor tracking tests were performed at the same period of the day. Basic locomotor activity was measured using an automated tracking device, Daniovision by Noldus, and the total distance traveled was quantified using EthoVision XT software of the same company (Wageningen, the Netherlands) over a 30 min long observation period. Larvae were placed in 48‐well plates, individually (single larva per well), using a plastic transfer pipette. The PTZ‐induced hyperlocomotion (acute seizure assay) was assessed in 5 dpf larval zebrafish (after 20 h incubation with tested derivatives at MCTs). After the incubation, larvae were exposed to an acute dose of PTZ (20 mM). Larval locomotor activity after exposure to PTZ was tracked (Daniovision by Noldus) over 30 mins, after 5‐mins of habituation. Additionally, larval locomotor activity was assessed in response to alternate lighting conditions (lights ON vs. lights OFF). Light intensity under illumination was 100%. Challenge to light/dark conditions lasted 10 min each, twice repeated.^[ [52] ^] Similarly, the data were recorded as the distance traveled (mm) by larvae when exposed to alternating lightning. All experiments were repeated three times, and data pooled. For statistical analysis and figure generation, GraphPad Prism 9.3.1 version (San Diego, CA, USA) was employed, and Grubbs test was applied to identify outliers. Shapiro‐Wilk test was then employed to assess whether data are normally distributed. Moreover, nonparametric ANOVA, Kruskal–Wallis, or Friedman (for repeated measures) test was used to analyze data, with statistical significance level set at p < 0.05. Data are presented as median or median + individual values.

[2] = molecular target: T1, 5‐HT1A receptor (Rattus norvegicus, UniProt P19327); experiment: 5‐HT1A receptor activation in the [35S]GTP‐γ‐S assay (hippocampal membranes); assay type: biochemical; conditions: [35S]GTPγS; for Emax: read-out: Emax (%) ± SEM, 5‐HT1A receptor G‐protein stimulation; for agonist activity for the 5‐HT1A receptor (classification in words): efficacy compared with 8‐OH‐DPAT
T1 construct: 80 μg of hippocampal membrane suspension (the 5‐HT1A assay); from tissue; host or cells: rat (Sprague-Dawley) hippocampus membranes
T1 sequence (P19327 1-422): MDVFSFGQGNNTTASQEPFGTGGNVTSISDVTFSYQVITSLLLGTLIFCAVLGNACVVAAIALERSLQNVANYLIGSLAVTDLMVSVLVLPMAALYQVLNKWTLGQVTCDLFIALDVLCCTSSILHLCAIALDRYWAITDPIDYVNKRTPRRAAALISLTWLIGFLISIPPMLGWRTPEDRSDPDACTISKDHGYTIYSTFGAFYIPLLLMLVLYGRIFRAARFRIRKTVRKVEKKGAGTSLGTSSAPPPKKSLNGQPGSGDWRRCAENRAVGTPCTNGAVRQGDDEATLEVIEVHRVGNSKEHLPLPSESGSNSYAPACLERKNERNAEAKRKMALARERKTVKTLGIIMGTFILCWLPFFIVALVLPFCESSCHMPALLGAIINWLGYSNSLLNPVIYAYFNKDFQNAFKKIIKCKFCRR
Protocol: Seven compound concentrations equally spaced on a log scale (10–4 M to 10–10 M) were incubated in duplicate with hippocampal membrane preparations (5μg per well) in assay buffer (50 mM Tris‐HCl, pH = 7.4, 1 mM EGTA, 3 mM MgCl2, 100 mM NaCl, and 30 μM GDP) and 0.08 nM [^35S]GTP‐γ‐S (specific activity: 1250 Ci mmole^−1, Revvity). Nonspecific binding was determined with 10μM of unlabeled GTP‐γ‐S. The final DMSO concentration in the assay was 5%. The reaction mixture was incubated for 90 min. at 30 °C on an orbital shaker set at 250 rpm. Next, the reaction mixture was deposited under vacuum with the FilterMate Harvester (Revvity, USA) onto Unifilter GF/C Plates (Revvity, MA, USA) presoaked with wash buffer (50 mM Tris‐HCl, pH = 7.4). The wells were then rapidly washed with 2 mL of wash buffer. Filter plates were dried overnight at room temperature. Once completely dry, 35 μl of MicroScint PS (Revvity, MA, USA) scintillation fluid was added to each well. Radioactivity was counted in a MicroBeta2 LumiJet scintillation counter (Revvity, MA, USA). Data were analyzed with GraphPad Prism 5.0 software (GraphPad Software, San Diego California USA, www.graphpad.com). The curves were fitted with three‐parameter non‐linear regression model.

[3] = molecular target: 5‐HT2A receptor (Rattus norvegicus, UniProt P14842); experiment: 5‐HT2A competition binding assay ([3H]ketanserin, frontal cortex membranes); parameters: from tissue; host or cells: rat (Sprague-Dawley) frontal cortex membranes; conditions: 1 nM [3H]ketanserin
[4] = rat hippocampal membranes, 95% CI in brackets, read-out: EC50 (95% CI, μM), 5‐HT1A receptor G‐protein stimulation
[5] = rat hippocampal membranes, read-out: pEC50, 5‐HT1A receptor G‐protein stimulation (converted)
[6] = 95% CI in brackets, read-out: 5‐HT2A Ki (95% CI)
[7] = read-out: 5‐HT2A pKi (converted)

5‐HT2A receptor, sequence (P14842 whole entry): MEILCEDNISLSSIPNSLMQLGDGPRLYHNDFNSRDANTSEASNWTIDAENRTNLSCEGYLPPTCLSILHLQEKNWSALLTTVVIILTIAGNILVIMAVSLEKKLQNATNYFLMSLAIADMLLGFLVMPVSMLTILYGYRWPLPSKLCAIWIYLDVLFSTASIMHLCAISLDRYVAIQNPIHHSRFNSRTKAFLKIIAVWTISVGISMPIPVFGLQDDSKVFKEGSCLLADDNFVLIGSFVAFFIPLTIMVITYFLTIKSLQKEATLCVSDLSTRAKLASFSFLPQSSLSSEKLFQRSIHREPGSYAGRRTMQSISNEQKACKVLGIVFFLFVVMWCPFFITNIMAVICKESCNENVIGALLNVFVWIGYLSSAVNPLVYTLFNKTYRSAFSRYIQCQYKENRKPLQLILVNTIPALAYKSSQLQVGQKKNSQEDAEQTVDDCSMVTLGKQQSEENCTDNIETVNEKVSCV

Compound	basic locomotor activity (total distance traveled) [1]	Emax (%) ± SEM, 5‐HT1A receptor G‐protein stimulation ([2]; rat hippocampal membranes) [%]	EC50 [2, 4] [µM]	EC50 [2, 5] [µM]	Ki [3, 6] [µM]	Emax ([2]; rat hippocampal membranes) [%]	agonist activity for the 5‐HT1A receptor (classification in words) [2]	Ki [3, 7] [µM]
O=C(NCCCN1CCN(c2ccc(C3=NCCS3)cc2)CC1)C1CC2C=CC1C2 (stereo not drawn) [FG‐18, Endo‐ N‐(3‐(4‐(4‐(4,5‐dihydrothiazol‐2‐yl)phenyl)piperazin‐1‐yl)propyl) bicyclo[2.2.1]hept‐5‐ene‐2‐carboxamide]	decreased	144 ± 8.2	8.8	8.91	2.73	–	–	–
O=C1C2C3C=CC(C3)C2C(=O)N1OCCCN1CCN(c2cccc(C3=NCCS3)c2)CC1 (stereo not shown) [FG‐8, 2‐(3‐(4‐(3‐(4,5‐dihydrothiazol‐2‐yl) phenyl) piperazin‐1‐yl) propoxy)‐3a,4,7,7a‐tetrahydro‐1H‐4,7‐methanoisoindole‐1,3(2H)‐dione]	slightly decreased larval activity	–	7.9	–	1.1	184 ± 6.6	full agonists	1.15
O=C(NCCCN1CCN(c2cccc(C3=NCCS3)c2)CC1)c1ccccn1 [FG‐2, N‐(3‐(4‐(3‐(4,5‐dihydrothiazol‐2‐yl) phenyl) piperazin‐1‐yl) propyl) picolinamide]	–	–	125	–	2.9	136 ± 10.2	–	2.95
O=C(NCCCN1CCN(c2ccccc2C2=NCCS2)CC1)c1ccccn1 [FG‐1, N‐(3‐(4‐(2‐(4,5‐dihydrothiazol‐2‐yl) phenyl) piperazin‐1‐yl) propyl) picolinamide]	decreased	–	16.5	20	3.13	138 ± 11.5	–	–
O=C(NCCCN1CCN(c2cccc(C3=NCCS3)c2)CC1)c1ccncc1 [FG‐5, N‐(3‐(4‐(3‐(4,5‐dihydrothiazol‐2‐yl) phenyl) piperazin‐1‐yl) propyl) isonicotinamide]	–	–	18.2	–	4.43	185 ± 17.6	–	–
O=C(NCCCN1CCN(c2ccccc2C2=NCCS2)CC1)c1ccncc1 [FG‐4, N‐(3‐(4‐(2‐(4,5‐dihydrothiazol‐2‐yl) phenyl) piperazin‐1‐yl) propyl) isonicotinamide]	slightly decreased larval activity	–	–	50.1	4.7	132 ± 14.9	–	–
O=C(NCCCN1CCN(c2ccc(C3=NCCS3)cc2)CC1)c1ccncc1 [FG‐6, N‐(3‐(4‐(4‐(4,5‐dihydrothiazol‐2‐yl) phenyl) piperazin‐1‐yl) propyl) isonicotinamide]	slightly decreased larval activity	–	9.4	–	4.6	184 ± 11	full agonists	–
O=C1C2C3C=CC(C3)C2C(=O)N1OCCCN1CCN(c2ccccc2C2=NCCS2)CC1 (stereo not shown) [FG‐7, 2‐(3‐(4‐(2‐(4,5‐dihydrothiazol‐2‐yl) phenyl) piperazin‐1‐yl) propoxy)‐3a,4,7,7a‐tetrahydro‐1 H‐4,7‐methanoisoindole‐1,3(2 H)‐dione]	slightly decreased larval activity	–	3.01	–	2.86	177 ± 3.3	full agonists	–
